# Test results as given in patent US20260034088A1, “SULFOPROPANOIC ACID DERIVATIVES FOR TREATING NEURODEGENERATIVE DISORDERS” (Alzheon, Inc., priority 2018, published 2026).
# Several values for one entry are separate records, joined by “and”; a condition that tells them apart may be missing. Identical values can stand only once.
# Tests used:
# [1] = target: T1, recombinant human Aβ42 peptide (Homo sapiens, UniProt P05067); assay: Ion mobility mass spectrometry (IMS MS) anti-Aβ42 oligomer activity; format: biochemical; conditions: for inhibition of formation of Aβ42 oligomers: after 24 hours in vitro
# T1 construct: recombinant human Aβ42 peptide; purchased BioLegend 843801
# Description: The conditions used for mass spectrometry, using a Waters Synapt G2-S, were as follows: positive polarity in sensitivity mode, capillary=2.5 kV, nebulizer=2 mbar, source temperature=80° C., desolvation temperature=60° C., sample cone setting=35 V, source offset setting=60 V, and mass range=500 to 4000 m/z. These conditions were maintained throughout the study to ensure consistency of the data and to avoid influencing the detection of oligomers due to preferential ionization conditions.
# Samples were directly infused into the mass spectrometer at a flow rate of 10 μL/min using a Protea PM-1000 Syringe Pump and Hamilton 1 mL Syringe. The data acquisition of the amyloid peptide was performed using a Waters Synapt G2-S quadrupole time of flight mass spectrometer (Q-TOF MS) with traveling wave ion mobility (Waters Corp., Milford, MA). The data were acquired using the systems sensitivity mode to allow for the detection of the less abundant oligomers. Samples were infused at room temperature. The IMS MS studies were conducted at Protea, Inc. (Morgantown, WV).
# 1 mg of recombinant human Aβ42 peptide from BioLegend (99% purity, cat #843801) was reconstituted in 200 μL of Fisher Optima LC/MS grade water (cat #W6-1) and vortexed vigorously for 2 minutes to solubilize the peptide creating a 5 mg/mL solution. Samples were then diluted to a final concentration of 22 pmol/μL prior to incubation. The sample mixtures were then incubated at room temperature for 0, 4 and 24 hours. After the acquisition of incubated samples was completed, the raw data were analyzed using the Waters MassLynx v2.4 suite with DriftScover v2.7 to visualize drift times for the peptide.
# Aβ42 species characterization using IMS MS was performed by direct infusion at 22 pmol/μL in water. The peptide was prepared in water to maintain the native state conformation of the peptide and ion mobility data acquisition was performed to detect and characterize the conformational changes of the native state monomer and any oligomers that may have formed during the incubation.
# The data acquisition for Aβ42 peptide was performed using a Waters Synapt G2-S quadrupole time of flight mass spectrometer (Q-TOF MS) with traveling wave ion mobility (Waters Corp., Milford, MA). The data were acquired using the systems sensitivity mode to allow for the detection of the less abundant oligomers. Samples were infused at room temperature as above.
# 1 mg of 3-SPA was reconstituted in 1 mL of Fisher Optima LC/MS grade water (cat #W6-1) and vortexed vigorously for 2 minutes until completely dissolved. The sample was then diluted to create 220 pmol/μL, and […] solutions to perform a 100-fold, and 1,000-fold molar excess for the binding experiments with Aβ42 peptide. […]
# [2] = Brain penetration of oral 3-SPA in male SD rats (brain, CSF, plasma); format: in vivo, Sprague-Dawley rats; conditions: oral 30 mg/kg
# Description: A separate group of animals was dosed orally at 30 mg/kg and terminal brain, CSF and plasma samples were collected at 1, 2, 6, and 24 hr (3 animals for each time point) for bioanalyses of 3-SPA in brain and CSF, and to estimate brain penetration relative to plasma concentrations. The in-life study was performed at Agilux Laboratories (Worcester, MA) following quality standards in line with Good Laboratory Practice. Bioanalyses of rat plasma, CSF and brain was preformed using LC-MS/MS at Nextcea. Prior to processing rat brains for bioanalysis, the brains were perfused to remove pooled blood. Pharmacokinetic data analyses were conducted using Winnonlin Professional v5.0.1 (Pharsight, Mountain View, CA).
# The plasma concentration of a single dose of 3-SPA, dissolved in saline as a clear solution, administered orally and intravenously to rats at a dose level of 30 mg/kg and 10 mg/kg, respectively, are shown in FIG. 9. Brain, CSF and corresponding plasma levels after a single oral dose of dose of 30 mg/kg of 3-SPA at 1, 2, 6, and 24 hr are shown in FIG. 10. Mean PK curves were used for calculation of pharmacokinetic parameters.
# T1 sequence (P05067 672-713 limits assumed): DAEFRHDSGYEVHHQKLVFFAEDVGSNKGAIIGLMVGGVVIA
structure (smiles),measurement,setting,value
"O=C(O)CCS(=O)(=O)O [Compound 3-SPA, 3-sulfopropanoic acid]",Aβ42 oligomer species detected (not inhibited),"[1]; 4 hr incubation, Aβ42:compound 1:1000","dimers, trimers and pentamers"
same,Aβ42 oligomer species detected (not inhibited),"[1]; 24 hours incubation, 1,000-fold excess of compound",Only pentamers were detected
same,inhibition of formation of Aβ42 oligomers,[1],Near complete prevention of formation of Aβ42 oligomers except for pentamers
same,Brain/Plasma (AUC %),[2],25% and 25.3%
"NCCCS(=O)(=O)O [Tramiprosate, 3-amino-1-propanesulfonic acid, reference compound]",inhibition of formation of Aβ42 oligomers,[1],complete inhibition
